Measured values reported in patent US12636285B2 (ViiV Healthcare Company, priority 2019, dated 2026).
“And” between values parts separate entries of the source, which are not always exact repeats. Identical values can stand only once. Like-named read-outs stand apart in the source and are kept apart here.

Columns and labels:
[1] = in vivo
Description: The observed hepatocellular findings in mice may be rodent specific.

HIV-1 [2] = experiment: Antiviral activity in combination with other antivirals, cell culture; type: cell-based; conditions: cell culture
HIV-1 clinical isolates = experiment: Antiviral activity in PBMCs against clinical isolates; type: cell-based; conditions: Human immunodeficiency virus 1, PBMC
HIV-1 [3] = test system: HIV-1
[4] = Binding to human plasma proteins; type: in vitro ADME; conditions: read-out: % Bound to human plasma proteins (converted)
[5] = oral administration once daily; cited from earlier work
[6] = test system: laboratory strains of HIV-1 (subtype B); experiment: Antiviral activity in PBMCs and 293 cells; type: cell-based; conditions: Human immunodeficiency virus 1, HEK293, n=4 strains
HIV-1 integrase = HIV-1 integrase (Human immunodeficiency virus type 1 group M subtype B, UniProt P04585)

Structure (SMILES): C[C@H]1CO[C@@H]2Cn3cc(C(=O)NCc4ccc(F)cc4F)c(=O)c(O)c3C(=O)N12 [Cabotegravir, (3S,11aR)-N-[(2,4-difluorophenyl)methyl]-6-hydroxy-3-methyl-5,7-dioxo-2,3,5,7,11,11a-hexahydro[1,3]oxazolo[3,2-a]pyrido[1,2-d]pyrazine-8-carboxamide]
- carcinogenicity ([1]; mouse): not carcinogenic
- carcinogenicity ([1]; rat): not carcinogenic
- antiviral activity in combination with rilpivirine, emtricitabine (FTC), lamivudine (3TC), or tenofovir disoproxil fumarate (TDF) (HIV-1 [2]): not antagonistic
- EC50 (HIV-1 clinical isolates; read-out: EC50 range, panel of 24 HIV-1 clinical isolates, PBMCs): 0.02 to 1.06 nM
- EC50 (HIV-1 clinical isolates; read-out: EC50 range, subtype B clinical isolates, n=3): 0.02 to 0.5 nM
- EC50 (HIV-1 clinical isolates; read-out: median EC50, panel of 24 HIV-1 clinical isolates (group M subtypes A-G, group O), PBMCs): 0.19 nM
- EC50 (HIV-1 clinical isolates; read-out: median EC50, subtype B clinical isolates, n=3): 0.05 nM
- decreased susceptibility in virologic failures (HIV-1 [3]; G140R, n=1): 7 fold
- decreased susceptibility in virologic failures (HIV-1 [3]; N155H, n=1): 3 fold
- decreased susceptibility in virologic failures (HIV-1 [3]; Q148R, n=2): 5 fold and 9 fold
- fraction unbound [4]: < 0.002
- half-life [5]: 40 h
- EC50 [6]: 0.22 to 1.7 nM
- IC50 (HIV-1 integrase): 3 nM
